# “Also recorded” adds a separate entry of the source.
# How the values were obtained:
# [1] = tested on: bone-marrow-derived macrophages (BMDM); assay type: cell-based, mouse; settings: 24 hours incubation
# [2] = parameters: species or system C57BL/6 mice; settings: mouse, in vivo, iv
# [3] = parameters: species or system C57BL/6 mice; settings: mouse, in vivo
# [4] = tested on: B. anthracis; parameters: species or system A/J mice; settings: mouse, in vivo
# [5] = molecular target: T1, TLR7 (Homo sapiens, UniProt Q9NYK1); test: TLR transformants, TLR7 agonist specificity and potency; assay type: cell-based
# T1 construct: expressed in transfected cells
# T1 sequence (Q9NYK1 27-1049): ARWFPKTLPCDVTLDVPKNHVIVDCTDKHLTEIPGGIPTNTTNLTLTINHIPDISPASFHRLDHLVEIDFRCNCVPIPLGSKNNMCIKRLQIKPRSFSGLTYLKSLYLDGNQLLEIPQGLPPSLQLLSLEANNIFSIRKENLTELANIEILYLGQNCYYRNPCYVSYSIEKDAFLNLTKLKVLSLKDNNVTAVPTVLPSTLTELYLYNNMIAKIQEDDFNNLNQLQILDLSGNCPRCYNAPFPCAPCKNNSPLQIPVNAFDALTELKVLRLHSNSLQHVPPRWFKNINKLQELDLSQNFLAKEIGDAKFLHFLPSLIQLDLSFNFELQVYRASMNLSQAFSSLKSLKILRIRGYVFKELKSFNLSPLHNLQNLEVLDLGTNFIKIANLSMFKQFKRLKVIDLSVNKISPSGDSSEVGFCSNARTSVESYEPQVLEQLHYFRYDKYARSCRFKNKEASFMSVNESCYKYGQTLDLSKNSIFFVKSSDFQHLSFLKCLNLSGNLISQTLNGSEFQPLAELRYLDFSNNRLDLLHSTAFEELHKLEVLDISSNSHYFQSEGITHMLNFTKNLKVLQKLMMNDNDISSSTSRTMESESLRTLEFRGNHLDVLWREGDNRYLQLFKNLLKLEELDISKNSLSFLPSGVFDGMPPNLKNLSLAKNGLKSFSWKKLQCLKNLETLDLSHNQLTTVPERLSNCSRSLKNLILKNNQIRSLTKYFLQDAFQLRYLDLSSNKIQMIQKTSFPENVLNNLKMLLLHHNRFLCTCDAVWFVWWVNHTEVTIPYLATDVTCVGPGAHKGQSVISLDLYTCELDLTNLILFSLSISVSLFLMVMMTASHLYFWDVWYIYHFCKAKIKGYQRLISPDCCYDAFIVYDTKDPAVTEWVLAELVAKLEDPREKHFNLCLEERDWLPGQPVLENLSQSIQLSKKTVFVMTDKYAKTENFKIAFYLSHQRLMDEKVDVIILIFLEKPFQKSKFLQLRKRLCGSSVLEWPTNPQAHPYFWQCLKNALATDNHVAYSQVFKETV
# [6] = tested on: anthrax infection; settings: in vivo
# [7] = tested on: B16 melanoma tumor cells expressing the cOVA transgene; parameters: species or system C57/B1 mice; settings: mouse, in vivo
compound,measurement,setting,value
"COCCOc1nc(N)c2nc(O)n(Cc3ccc(C=O)cc3)c2n1 [UC-1V150, 4-[6-amino-8-hydroxy-2-(2-methoxyethoxy)purin-9-ylmethyl]benzaldehyde]",cytokine release / activation of BMDM,[1],stimulated cytokine release; also recorded: active at nanomolar concentrations
same,time of peak serum cytokine levels,[2],about 2 hours
same,cytokine production in the BALF,[3],induced selective cytokine production
same,effect on survival / protection,[4],no significant difference; also recorded: failed to protect
same,TLR specificity,[5],specific TLR7 agonist
O=C(O)c1cn(C2CC2)c2cc(N3CCNCC3)c(F)cc2c1=O [ciprofloxacin],survival,[6],15-25%
"chicken ovalbumin: antigen alone, comparator",median survival,[7],22 days

# From patent US9050376B2 (priority 2007, dated 2015)
